From patent publication US6083940A, “Method and composition for effecting contraception in a mammalian male” (SRI International, priority 1998, dated 2000)
“Also recorded” adds a separate entry of the source.

Columns and labels:
[1] = biological target: T1, Rat Prostate Androgen Receptor (Rattus norvegicus, UniProt P15207); assay: Rat Prostate Androgen Receptor Competition Assay; type: binding; conditions: for Relative Binding Affinity: 5α-DHT set at 100, conc. of 5αDHT at 50% binding inhibition/conc. competitor at 50% binding inhibition × 100; for Relative androgen receptor binding affinity: Table 3, repeats the values of Table 1
T1 construct: from tissue; host or cells: prostate cytosol (100,000×g supernatant) of gonadectomized male rats
T1 sequence (P15207 1-902): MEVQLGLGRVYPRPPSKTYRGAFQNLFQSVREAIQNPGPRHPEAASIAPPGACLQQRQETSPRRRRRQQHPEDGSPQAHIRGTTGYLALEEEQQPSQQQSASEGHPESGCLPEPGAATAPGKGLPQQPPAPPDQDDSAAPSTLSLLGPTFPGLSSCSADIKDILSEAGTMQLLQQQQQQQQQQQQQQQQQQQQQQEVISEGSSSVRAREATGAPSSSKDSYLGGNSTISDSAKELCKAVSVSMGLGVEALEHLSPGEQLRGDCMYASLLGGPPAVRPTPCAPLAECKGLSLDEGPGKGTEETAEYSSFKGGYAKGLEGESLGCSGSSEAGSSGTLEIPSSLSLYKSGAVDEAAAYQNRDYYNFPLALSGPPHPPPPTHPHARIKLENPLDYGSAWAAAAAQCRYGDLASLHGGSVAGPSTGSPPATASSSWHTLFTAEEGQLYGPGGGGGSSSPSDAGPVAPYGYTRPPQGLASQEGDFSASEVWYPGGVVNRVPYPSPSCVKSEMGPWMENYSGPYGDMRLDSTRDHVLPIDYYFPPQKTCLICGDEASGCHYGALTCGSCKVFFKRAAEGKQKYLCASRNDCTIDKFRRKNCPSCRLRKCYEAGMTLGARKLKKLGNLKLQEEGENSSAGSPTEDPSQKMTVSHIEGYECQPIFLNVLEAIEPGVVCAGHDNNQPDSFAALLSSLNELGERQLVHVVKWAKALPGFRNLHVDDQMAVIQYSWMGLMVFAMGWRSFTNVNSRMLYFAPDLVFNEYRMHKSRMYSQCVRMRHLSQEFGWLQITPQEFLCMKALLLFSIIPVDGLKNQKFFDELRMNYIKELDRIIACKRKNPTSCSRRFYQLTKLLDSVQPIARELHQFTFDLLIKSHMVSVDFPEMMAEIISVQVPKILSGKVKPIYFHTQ
Description: Male rats were gonadectomized 20-22 hours before killing. The animals were killed by decapitation and exsanguination. Prostates were kept on ice immediately after removal from the animals. After trimming off the fats, prostates were minced and homogenized in 3 volumes of Tris-HCl buffer (0.02 M, pH 7.4 containing 1.5 mM EDTA and 10% glycerol). The homogenate was centrifuged at 10,000×g for 10 minutes, and the resulting supernatant was centrifuged again at 100,000×g for 60 minutes. The final supernatant contained the androgen-binding receptor.
The mixture was brought up to 1.0 mL with Tris-HCl buffer used for homogenizing the tissue. The mixture was then incubated at 4° C. for 4 hr., with occasional shaking. At the end of incubation, the receptor-bound androgen was isolated by ammonium sulfate precipitation.
A 70% saturated ammonium sulfate solution was prepared and its pH is adjusted to 7.4 with aqueous NH3. To 1.0 mL of the labeled cytosol, 1.0 mL of the 70% saturated ammonium sulfate was added dropwise with gentle mixing. The sample was let stand at 0-4° C. for 35 minutes, then centrifuged at 10,000×g for 20 minutes. The precipitate was resuspended in 1.0 mL of the above-mentioned Tris-HCl buffer containing 2 mg of bovine albumin. The androgen-receptor complex was immediately reprecipitated by addition of equal volumes of 70% saturated ammonium sulfate. The sample was allowed to stand at 0-4° C. for another 45 minutes, then centrifuged again as outlined above. The supernatant was decanted and the walls of the tubes thoroughly dried with filter paper. The final precipitated protein was resuspended in 1.0 mL of the same buffer and then transferred quantitatively into a counting vial containing 10 mL of Scintisol for counting.

[2] = tested on: rat ventral prostate explant cultures (prostatein C3 mRNA); assay: Measurement of Prostatein C3 mRNA in rat ventral prostate explant culture; conditions: dihydrotestosterone 25 nM alone
Description: Testosterone was used as a control. […] Addition of androgens to the medium of rat prostate explant cultures maintains the mRNA for C3 subunit of prostatein, and measurement of either prostatein or its C3 subunit mRNA serves as a sensitive, androgen-responsive marker for the explant system.

[3] = tested on: SEX ACCESSORY GLANDS AND TESTES OF 22-DAY OLD CASTRATED MALE RATS; assay: Inhibition of Prostate Growth in Castrated Male Rats (testosterone supplemented); type: in vivo, rat; conditions: for In Vivo Percent Inhibition of Ventral Prostate Weight: castrated male rats given supplemental testosterone; for Seminal Vesicle weight / Ventral Prostate weight / Final BW: ten days, mean ± SE
Description: Male rats weighing 36 to 38 grams were castrated at the age of 22 days. […] The castrated rats were treated with the steroids once daily for ten consecutive days. On the tenth day following treatment, the rats were sacrificed and autopsied and final seminal vesicle weights and ventral prostate weights determined.

[4] = tested on: 22 day old castrated male rats, seminal vesicle and ventral prostate; assay: standard Hershberger androgenic assay (agonist androgenic activity); type: in vivo, rat; conditions: for effect of drug dosage on prostate weight (FIG. 1): increasing dose, in words
[5] = compound 30.0 mg/day + testosterone propionate 0.6 mg/day
[6] = doses of 0.8 mg, 1.6 mg, and 3.2 mg, versus vehicle alone
[7] = testosterone propionate 0.6 mg/day alone, N=5

C#C[C@]1(O)CC[C@H]2[C@@H]3CC[C@H]4Cc5nn(S(C)(=O)=O)cc5C[C@]4(C)[C@H]3CC[C@@]21C [Win 49,596, zanoterone, reference compound]
Relative Binding Affinity [1]: 2.2 | Relative androgen receptor binding affinity [1]: 2.2

C[C@]12CCC(=O)C[C@@H]1CC[C@@H]1[C@@H]2CC[C@]2(C)[C@@H](O)CC[C@@H]12 [5α-Dihydrotestosterone, reference compound]
C3/28s × 100, percent of dihydrotestosterone ([2]; N=3): 100% | C3 m-RNA, percent of dihydrotestosterone ([2]; N=3): 100% | C3 m-RNA ([2]; N=3, 30 disks/explant, printed spread ± 32,675): 219,371 | C3/28s × 100 ([2]; N=3, printed spread ± 26.9): 148.9

CC(C)(O)C(=O)Nc1ccc([N+](=O)[O-])c(C(F)(F)F)c1 [Hydroxyflutamide, reference compound]
Relative Binding Affinity [1]: 2.6 | Relative androgen receptor binding affinity [1]: 2.6

CC(=O)O[C@]1(C(C)=O)CC[C@H]2[C@@H]3C=C(Cl)C4=CC(=O)[C@@H]5C[C@@H]5[C@]4(C)[C@H]3CC[C@@]21C [Cyproterone acetate, reference compound]
In Vivo Percent Inhibition of Ventral Prostate Weight [3]: 54.3 ± 8.34% | Seminal Vesicle weight [3, 5]: 9.8 ± 0.8 mg | Ventral Prostate weight [3, 5]: 30.0 ± 3.6 mg

C[C@]12CC[C@H]3[C@@H](CCC4=CC(=O)CC[C@@]43C)[C@@H]1CC[C@@H]2O [testosterone, reference compound]
effect of drug dosage on prostate weight (FIG. 1) [4]: proportionate rise in prostate weight with increasing dose

CCC[C@]1(O)CC[C@H]2[C@@H]3CCC4=CC(=O)CCC4=C3CC[C@@]21C [Compound II-1, 17α-Propylestra-4,9-dien-17β-ol-3-one]
Relative Binding Affinity [1]: 5.7 | Relative androgen receptor binding affinity [1]: 5.7 | affinity for the rat prostate androgen receptor compared with other known antiandrogens ([1]; in words): higher affinity for the androgen rat prostate receptor than all of the other known antiandrogens except cyproterone acetate; also recorded: higher affinity for the rat ventral prostate androgen receptor than the steroidal antiandrogen zanoterone (WIN®49,596); also recorded: higher affinity to the androgen receptor than three other nonsteroidal antiandrogen receptor antagonists flutamide, which is available as an antiandrogen in the United States, nilutamide, developed by Roussel in France, and Casodex® (ICI 176,334) | In Vivo Percent Inhibition of Ventral Prostate Weight [3]: 18.8 ± 5.74% | Final BW [3, 5]: 88 ± 5 g | Seminal Vesicle weight [3, 5]: 28.2 ± 2.8 mg | Ventral Prostate weight [3, 5]: 45.3 ± 2.5 mg | inhibition of prostate growth stimulated by exogenous testosterone ([3]; male castrated rats, in words): inhibit prostate growth stimulated by exogenous testosterone | dose response curves for androgenic activity ([4]; 22 day old castrated male rats): Very flat dose response curves | agonist androgenic activity at the therapeutically effective antiandrogenic dose ([4]; by extrapolation to 30.0 mg, castrated male rat): essentially devoid of agonist androgenic activity | seminal vesicle weight (agonist androgenic activity) [4, 6]: equal to the vehicle alone controls | ventral prostate weight (agonist androgenic activity) [4, 6]: equal to the vehicle alone controls | effect of drug dosage on prostate weight (FIG. 1) [4]: fairly steady prostate weight, even at higher doses

CCC(=O)O[C@H]1CC[C@H]2[C@@H]3CCC4=CC(=O)CC[C@]4(C)[C@H]3CC[C@]12C [Testosterone propionate, reference compound]
Final BW [3, 7]: 86 ± 4 g | Seminal Vesicle weight [3, 7]: 26.6 ± 34 mg | Ventral Prostate weight [3, 7]: 53.4 ± 5.8 mg
